Measured values published in BindingDB's records for doi:10.1016/j.ejmech.2018.01.053 (University of Southern California, 2018).

Columns and labels:
[1] = Inhibition of BRAF V600E mutant in human A375 cells assessed as reduction in cell proliferation incubated for 96 hrs by MTT assay
[2] = Inhibition of BCR-ABL (unknown origin) expressed in mouse BA/F3 cells assessed as reduction in cell proliferation incubated for 48 hrs by MTT assay

| IC50 [1] | IC50 [2] | Compound |
| --- | --- | --- |
| > 10000 nM | 942 nM | CC(C)n1nc(C#Cc2cccc3cc(-c4cccc(C(F)(F)F)c4)ncc23)c2c(N)ncnc21 |
| 97 nM | – | CC(C)n1nc(C#Cc2cccc(NC(=O)c3cccc(C(F)(F)F)c3)c2)c2c(N)ncnc21 |
| > 10000 nM | 354 nM | CC(C)n1nc(C#Cc2cccc3cc(-c4ccc(CN5CCN(C)CC5)cc4)ncc23)c2c(N)ncnc21 |
| 2300 nM | 435 nM | Cc1ccc2cc(-c3cccc(C(F)(F)F)c3)ncc2c1C#Cc1nn(C(C)C)c2ncnc(N)c12 |
| > 10000 nM | 1110 nM | CCn1nc(C#Cc2cccc3cc(-c4cccc(C(F)(F)F)c4)ncc23)c2c(N)ncnc21 |
